Results: paper PMC3668706, “Highly Divergent T-cell Receptor Binding Modes Underlie Specific Recognition of a Bulged Viral Peptide bound to a Human Leukocyte Antigen Class I Molecule” (The Journal of Biological Chemistry, 2013)

Columns and labels:
SB47 CTL clone = test: Intracellular IFN-γ staining, SB47 CTL clone with LPEP-pulsed T2 cells; format: cell-based, human; conditions: IFNγ intracellular staining, peptide-pulsed T2 cells, 4 h; performed twice
Description: Data were analyzed with FlowJo software (Tree Star).

CA5 CTL clone = conditions: IFNγ intracellular staining, peptide-pulsed T2 cells, 4 h; performed twice
Description: CTL clones were tested against a range of antigen-presenting cells and assayed for intracellular expression of IFN-γ by flow cytometry using the BD Cytofix/Cytoperm kit (BD Biosciences) according to standard protocols. Briefly, clones were incubated with antigen-presenting cells at a stimulator to responder ratio of 1:2 for 4 h in the presence of brefeldin A (BioLegend). For peptide titration experiments, T2 cells were incubated with various concentrations of LPEP peptide for 1 h and then washed thoroughly prior to incubation with CTL clones. After stimulation, cells were stained with Live/Dead Fixable Aqua Dead Cell Stain (Invitrogen) and anti-CD8-Cy5.5-PerCP mAb (BioLegend) for 30 min at 4 °C. Cells were then washed, fixed, permeabilized, and labeled with anti-IFN-γ-antigen-presenting cell mAb (BioLegend) for 30 min at 4 °C. After a further wash, samples were collected using a FACSCanto II flow cytometer (BD Biosciences). Data were analyzed with FlowJo software (Tree Star). Lymphocytes were identified based on light scatter, then live CD8^+ T-cells were selected and IFN-γ^+ gates were drawn based on unstimulated controls.

LPEPLPQGQLTAY [LPEP peptide]
recognition of LPEP presented by HLA-B*35:08 versus HLA-B*35:01 by SB47 CTL clone (SB47 CTL clone): equally well | recognition of LPEP presented by HLA-B*35:08 versus HLA-B*35:01 by CA5 CTL clone (CA5 CTL clone): preferentially recognized HLA-B*35:08^LPEP when the peptide was limited
